PubChem BioAssay (NCI)
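All cell lines were grown in 96-well plates and treated with compound for 48 hours. At the GI50, growth is halved. Definition used: TGI = concentration required for complete inhibition of growth.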

Key:
Assay in all cases: NCI anticancer screen, dose series, 48 h
[1] = tested on: A498 renal
[2] = tested on: CAKI-1 renal
[3] = tested on: HCC-2998 colon
[4] = tested on: NCI-H226 lung
[5] = tested on: RPMI-8226 leukemia
[6] = tested on: SK-OV-3 ovarian
[7] = tested on: UO-31 renal
[8] = tested on: DU-145 prostate
[9] = tested on: PC-3 prostate
[10] = tested on: BT-549 breast

Compound	TGI [1]	TGI [2]	TGI [3]	TGI [4]	TGI [5]	TGI [6]	TGI [7]	TGI [8]	TGI [9]	GI50 [1]	GI50 [10]	TGI [10]	GI50 [2]	GI50 [8]	GI50 [4]	GI50 [9]	GI50 [5]	GI50 [6]	GI50 [7]	GI50 [3]
CC1(CO)C(O)CCC2(C)C1C(O)CC1CC3CC12CCC3(O)CO (stereo unspecified)	> 225 µM	> 225 µM	> 225 µM	224 µM	> 196 µM	> 225 µM	> 225 µM	–	–	–	–	–	–	–	–	–	–	–	–	–
O=c1ccn(Cc2ccccc2CCl)c(=O)[nH]1	–	64 µM	59 µM	–	–	> 100 µM	77.3 µM	> 100 µM	> 100 µM	–	–	–	–	–	–	–	–	–	–	–
Fc1ccc(Nc2ncc(-c3cc(F)c(Cl)cc3Cl)s2)cc1Cl	29.1 µM	22 µM	–	> 100 µM	25.1 µM	> 100 µM	42.1 µM	30.8 µM	27.7 µM	11200 nM	20200 nM	45.1 µM	8200 nM	9.01 µM	7.92 µM	14000 nM	9.38 µM	90800 nM	17100 nM	–
CC(=O)Nc1c2sscc-2n(C)c1=O	3.27 µM	3.36 µM	1.89 µM	3.4 µM	4.48 µM	2.84 µM	3.58 µM	5.54 µM	2.97 µM	–	–	2.76 µM	–	–	–	–	–	–	–	–
OCC(O)C(O)C(O)C(O)CNCCO/N=C1/C(c2c(O)[nH]c3ccccc23)=Nc2ccccc21 (stereo unspecified)	–	> 50 µM	28.7 µM	> 50 µM	> 50 µM	29.8 µM	> 50 µM	> 50 µM	30.8 µM	–	–	41.7 µM	–	–	–	–	–	–	–	–
O=C(CC(Cc1ccccc1)c1ccc(Oc2ccccc2)cc1)Nc1cccc(Cl)c1 (stereo unspecified)	26.3 µM	> 100 µM	31.8 µM	73.2 µM	17.3 µM	> 100 µM	> 100 µM	> 100 µM	27.2 µM	–	–	75.9 µM	–	–	–	–	–	–	–	–
COc1ccc(C2CC(c3ccc(NS(=O)(=O)c4cc([N+](=O)[O-])ccc4C)cc3)=NN2S(=O)(=O)c2cc([N+](=O)[O-])ccc2C)cc1 (stereo unspecified)	> 100 µM	> 100 µM	57.9 µM	> 100 µM	> 100 µM	> 100 µM	> 100 µM	> 100 µM	> 100 µM	–	–	> 100 µM	–	–	–	–	–	–	–	–
N#CC(NNC(=O)c1c(Cl)c(Cl)c(Cl)c(Cl)c1-c1nc2ccc(C(=O)c3ccccc3)cc2[nH]1)c1ccccc1 (stereo unspecified)	–	> 100 µM	–	28.3 µM	24.9 µM	69.8 µM	> 100 µM	> 100 µM	> 100 µM	–	–	> 100 µM	–	–	–	–	–	–	–	–
O=[N+]([O-])c1ccc(NNN=Nc2ccc(-c3nc4ccccc4[nH]3)cc2)c([N+](=O)[O-])c1	89.5 µM	> 100 µM	> 100 µM	> 100 µM	–	> 100 µM	> 100 µM	> 100 µM	> 100 µM	–	–	> 100 µM	–	–	–	–	–	–	–	–
COc1ccc(/C=C2\C[C@H]3[C@@H]4CC=C5C[C@@H](OC(C)=O)CC[C@]5(C)[C@H]4CC[C@]3(C)C2=O)cc1OC	> 100 µM	> 100 µM	> 100 µM	> 100 µM	> 100 µM	–	35.9 µM	> 100 µM	> 100 µM	–	–	> 100 µM	–	–	–	–	–	–	–	–
COC1=CC(=O)c2c(c(COC(C)=O)cn2C)C1=O	0.586 µM	0.22 µM	–	0.424 µM	0.584 µM	0.677 µM	0.551 µM	0.247 µM	1.35 µM	–	–	0.0911 µM	–	–	–	–	–	–	–	–
C1=Nc2ccccc2Cn2nncc21	–	> 100 µM	> 100 µM	> 100 µM	> 100 µM	> 100 µM	> 100 µM	–	–	–	–	–	–	–	–	–	–	–	–	–
CC(C)NC(=O)OCc1nnn2c1CCC2	–	–	> 100 µM	–	–	> 100 µM	> 100 µM	–	–	–	–	–	–	–	–	–	–	–	–	–
COc1ccc(N2C(=O)C(=O)N(C)C2=O)c2ccccc12	> 10 µM	> 10 µM	> 10 µM	> 10 µM	> 10 µM	> 10 µM	> 10 µM	> 10 µM	> 10 µM	–	–	–	–	–	–	–	–	–	–	–
OC(c1ccccc1)C1CC2C=CC1C2 (stereo unspecified)	> 100 µM	> 100 µM	–	–	> 100 µM	> 100 µM	> 100 µM	–	–	–	–	–	–	–	–	–	–	–	–	–
O=[N+]([O-])c1ccc(Cc2nc3cc4ccccc4cc3[nH]2)cc1C(F)(F)F	33.5 µM	26.7 µM	30.1 µM	–	–	31 µM	40.4 µM	57.2 µM	> 100 µM	–	–	43 µM	–	–	–	–	–	–	–	–
Clc1ccc(C2CC(c3cccc(Nc4ccncc4)c3)=NN2c2ccccc2)cc1 (stereo unspecified)	3.3 µM	2.84 µM	3.06 µM	39.5 µM	–	7.33 µM	2.79 µM	3.27 µM	3.12 µM	1430 nM	1720 nM	3.38 µM	1500 nM	1.73 µM	16.4 µM	1600 nM	–	2570 nM	1470 nM	1600 nM
COc1cc(/C=N/N=C(\N)NO)ccc1O	> 100 µM	> 100 µM	–	85.9 µM	> 100 µM	> 100 µM	> 100 µM	–	–	–	–	–	–	–	–	–	–	–	–	–
CC(C)C(=O)Nc1ccc(-c2nc(-c3cccc(OCCN4CCOCC4)c3)c(-c3ccnc(Br)c3)[nH]2)cc1	4.74 µM	7.01 µM	11.4 µM	19.8 µM	4 µM	5.53 µM	7.23 µM	> 100 µM	14.5 µM	1600 nM	2820 nM	17.3 µM	2300 nM	4.48 µM	3.79 µM	3080 nM	1.09 µM	2450 nM	2360 nM	3210 nM
CC(C)(C)CNCCCNc1ccc(Cl)cc1	51.5 µM	–	–	78.7 µM	55.4 µM	> 100 µM	> 100 µM	> 100 µM	> 100 µM	–	–	> 100 µM	–	–	–	–	–	–	–	–
Fc1cc(C2=Nn3c(CNc4ccc(Cl)cc4)nnc3S/C2=C\c2ccc(-c3ccc(Cl)cc3)o2)c(Cl)cc1Cl	65.6 µM	72.4 µM	> 100 µM	> 100 µM	79.1 µM	–	> 100 µM	> 100 µM	51 µM	–	–	> 100 µM	–	–	–	–	–	–	–	–
O=C(c1cc(Cl)cc(Cl)c1)N(Cc1cccnc1)C(=S)N(Cc1cccnc1)C(=O)c1cc(Cl)cc(Cl)c1	81.2 µM	> 100 µM	49.6 µM	> 100 µM	> 100 µM	> 100 µM	56.2 µM	> 100 µM	60.6 µM	–	–	81.5 µM	–	–	–	–	–	–	–	–
CNCCCn1c2c(c3ccc(Cl)cc3c1=O)C(=O)c1cc(OC)cnc1-2	9.07 µM	1.78 µM	–	3.86 µM	–	2.08 µM	2.64 µM	1.74 µM	2.33 µM	531 nM	645 nM	2.07 µM	63.1 nM	0.331 µM	1.35 µM	1020 nM	–	658 nM	1080 nM	–
CSC1=C(SC)C(=O)c2cn(C)c(=O)cc2C1=O	28.4 µM	–	35.8 µM	40.4 µM	> 100 µM	31.3 µM	3.13 µM	21 µM	26.2 µM	–	–	3.71 µM	–	–	–	–	–	–	–	–
O=c1ccc2c(Cl)cccc2o1	> 100 µM	> 100 µM	> 100 µM	> 100 µM	> 100 µM	–	> 100 µM	> 100 µM	> 100 µM	–	–	> 100 µM	–	–	–	–	–	–	–	–
